How the values were obtained:
UWB1.289 cells = test: Cell proliferation inhibitory activity in BRCA1/2-mutant or HRD-positive cells (Cell Titer-Glo); type: cell-based; conditions: UWB1289; UWB1.289 cells, 144 hours after compound treatment, Cell Titer-Glo, 1.5 nM to 10 µM; read-out: GI50 UWB1.289 BRCA1 mut
Method in brief: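 GI50 from CellTiter-Glo luminescence after 144 h compound exposure at 37 °C. Cells seeded at 1,000 per well in MEBM/RPMI1640 mix 16–24 h beforehand; […] from 10 µM down to 1.5 nM final (3-fold steps).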

recombinant USP1 protein = molecular target: T1, recombinant USP1 protein (Homo sapiens, UniProt O94782, DEL125-138/DEL229-408/DEL608-737); test: Binding affinity to recombinant USP1 protein by differential scanning fluorimetry; conditions: compound 100 µM; 0.03 mg/mL USP1 (Δ1-66, Δ125-138, Δ229-408, Δ608-737); Tm with compound minus Tm with DMSO; read-out: ΔTm (°C)
T1 sequence (O94782 with tags, fused parts or gaps DEL125-138/DEL229-408/DEL608-737): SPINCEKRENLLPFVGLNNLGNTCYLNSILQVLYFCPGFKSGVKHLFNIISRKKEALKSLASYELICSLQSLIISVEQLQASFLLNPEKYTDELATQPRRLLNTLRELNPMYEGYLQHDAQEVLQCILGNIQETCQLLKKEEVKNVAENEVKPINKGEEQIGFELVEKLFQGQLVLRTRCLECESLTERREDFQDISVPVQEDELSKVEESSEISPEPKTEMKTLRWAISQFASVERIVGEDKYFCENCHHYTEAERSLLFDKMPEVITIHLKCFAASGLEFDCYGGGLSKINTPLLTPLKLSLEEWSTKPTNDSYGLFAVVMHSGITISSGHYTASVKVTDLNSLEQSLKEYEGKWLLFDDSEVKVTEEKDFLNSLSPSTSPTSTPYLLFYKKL
Method in brief: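 Thermal shift readout: ΔTm is the compound-well melting temperature less the DMSO-well value, measured by real-time PCR. Compounds tested at 100 µM final against 0.03 mg/mL truncated USP1 (Δ1-66, Δ125-138, Δ229-408, Δ608-737) in pH 8.0 Tris buffer containing 150 mM NaCl, 2% glycerol, 1 mM DTT.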

SMILES	ΔTm at 100 µM (recombinant USP1 protein) [°C]	GI50 (UWB1.289 cells) [nM]
COc1ncnc(C2CC2)c1-c1ncc2cc(C(=O)NC[C@@H]3CCO3)n(Cc3ccc(-c4nc(C(F)(F)F)cn4C(C)C)cc3)c2n1 [Example 66, (S)-2-(4-cyclopropyl-6-methoxypyrimidin-5-yl)-7-(4-(1-isopropyl-4-(trifluoromethyl)-1H-imidazol-2-yl)benzyl)-N-(oxetan-2-ylmethyl)-7H-pyrrolo[2,3-d]pyrimidine-6-carboxamide]	> 5	< 100
COc1ncnc(C2CC2)c1-c1ncc2cc(C(=O)Nc3cnn(C)c3)n(Cc3ccc(-c4nc(C(F)(F)F)cn4C(C)C)cc3)c2n1 [Example 30, 2-(4-cyclopropyl-6-methoxypyrimidin-5-yl)-7-(4-(1-isopropyl-4-(trifluoromethyl)-1H-imidazol-2-yl)benzyl)-N-(1-methyl-1H-pyrazol-4-yl)-7H-pyrrolo[2,3-d]pyrimidine-6-carboxamide]	> 5	< 100
COc1ncnc(C2CC2)c1-c1ncc2cc(C(=O)NC3CC3)n(Cc3ccc(-c4nc(C(F)(F)F)cn4C(C)C)cc3)c2n1 [Example 11, N-cyclopropyl-2-(4-cyclopropyl-6-methoxypyrimidin-5-yl)-7-(4-(1-isopropyl-4-(trifluoromethyl)-1H-imidazol-2-yl)benzyl)-7H-pyrrolo[2,3-d]pyrimidine-6-carboxamide]	> 5	< 100
CNC(=O)c1cc2cnc(-c3c(OC)ncnc3C3CC3)nc2n1Cc1ccc(-c2nc(C(F)(F)F)cn2C(C)C)c(F)c1 [Example 146, 2-(4-cyclopropyl-6-methoxypyrimidin-5-yl)-7-(3-fluoro-4-(1-isopropyl-4-(trifluoromethyl)-1H-imidazol-2-yl)benzyl)-N-methyl-7H-pyrrolo[2,3-d]pyrimidine-6-carboxamide]	> 5	< 100
COc1ncnc(C2CC2)c1-c1ncc2cc(C(=O)NC3CC3)n(Cc3ccc(-c4nc(C(F)(F)F)cn4C)cc3)c2n1 [Example 150, N-cyclopropyl-2-(4-cyclopropyl-6-methoxypyrimidin-5-yl)-7-(4-(1-methyl-4-(trifluoromethyl)-1H-imidazol-2-yl)benzyl)-7H-pyrrolo[2,3-d]pyrimidine-6-carboxamide]	> 5	< 100
CNC(=O)c1cc2cnc(-c3c(OC(C)C)ncnc3C3CC3)nc2n1Cc1ccc(-c2nc(C(F)(F)F)cn2C(C)C)cc1 [Example 119, 2-(4-cyclopropyl-6-isopropoxypyrimidin-5-yl)-7-(4-(1-isopropyl-4-(trifluoromethyl)-1H-imidazol-2-yl)benzyl)-N-methyl-7H-pyrrolo[2,3-d]pyrimidine-6-carboxamide]	> 5	< 100
CNC(=O)c1cc2cnc(-c3c(OC)ncnc3C3CC3)nc2n1Cc1ccc(-c2nc(C(F)(F)F)cn2C2CC2)cc1 [Example 145, 7-(4-(1-cyclopropyl-4-(trifluoromethyl) -1H-imidazol-2-yl)benzyl)-2-(4-cyclopropyl-6-methoxypyrimidin-5-yl)-N-methyl-7H-pyrrolo[2,3-d]pyrimidine-6-carboxamide]	> 5	100 to 500
COc1ncnc(C2CC2)c1-c1ncc2cc(C(=O)NCC3(CO)CC3)n(Cc3ccc(-c4nc(C(F)(F)F)cn4C(C)C)cc3)c2n1 [Example 7, 2-(4-cyclopropyl-6-methoxypyrimidin-5-yl)-N-((1-(hydroxymethyl)cyclopropyl)methyl)-7-(4-(1-isopropyl-4-(trifluoromethyl)-1H-imidazol-2-yl)benzyl)-7H-pyrrolo[2,3-d]pyrimidine-6-carboxamide]	> 5	< 100
COc1ncnc(C2CC2)c1-c1ncc2cc(C(=O)NC3CC3(F)F)n(Cc3ccc(-c4nc(C(F)(F)F)cn4C(C)C)cc3)c2n1 (centres unmarked) [Example 10, 2-(4-cyclopropyl-6-methoxypyrimidin-5-yl)-N-(2,2-difluorocyclopropyl)-7-(4-(1-isopropyl-4-(trifluoromethyl)-1H-imidazol-2-yl)benzyl)-7H-pyrrolo[2,3-d]pyrimidine-6-carboxamide]	> 5	< 100
COc1ncnc(C2CC2)c1-c1ncc2cc(C(=O)Nc3cccc4ccccc34)n(Cc3ccc(-c4nc(C(F)(F)F)cn4C(C)C)cc3)c2n1 [Example 28, 2-(4-cyclopropyl-6-methoxypyrimidin-5-yl)-7-(4-(1-isopropyl-4-(trifluoromethyl)-1H-imidazol-2-yl)benzyl)-N-(naphthalen-1-yl)-7H-pyrrolo[2,3-d]pyrimidine-6-carboxamide]	> 5	< 100
COc1ncnc(C2CC2)c1-c1ncc2cc(C(=O)N3CC4(COC4)C3)n(Cc3ccc(-c4nc(C(F)(F)F)cn4C(C)C)cc3)c2n1 [Example 35, (2-(4-cyclopropyl-6-methoxypyrimid in-5-yl)-7-(4-(1-isopropyl-4-(trifluoromethyl)-1H-imidazol-2-yl)benzyl)-7H-pyrrolo[2,3-d]pyrimidin-6-yl) (2-oxa-6-azaspiro[3.3]heptan-6-yl)methanone]	> 5	< 100

Second part, led by results:

ΔTm at 100 µM (recombinant USP1 protein) [°C]	SMILES	GI50 (UWB1.289 cells) [nM]
> 5	COc1ncnc(C2CC2)c1-c1ncc2cc(C(=O)N[C@@H]3CN(C)C[C@H]3F)n(Cc3ccc(-c4nc(C(F)(F)F)cn4C)cc3)c2n1 [Example 218, 2-(4-cyclopropyl-6-methoxypyrimidin-5-yl) -N-((3R,4R)-4-fluoro-1-methylpyrrolidin-3-yl)-7-(4-(1-methyl-4-(trifluoromethyl)-1H-imidazol-2-yl)benzyl)-7H-pyrrolo[2,3-d]pyrimidine-6-carboxamide]	< 100
> 5	COc1ncnc(C2CC2)c1-c1ncc2cc(C(=O)N[C@@H]3CCC[C@H]3N(C)C)n(Cc3ccc(-c4nc(C(F)(F)F)cn4C)cc3)c2n1 [Example 168, 2-(4-cyclopropyl-6-methoxypyrimidin-5-yl)-N-((1R,2R)-2-(dimethylamino)cyclopentyl)-7-(4-(1-methyl-4-(trifluoromethyl)-1H-imidazol-2-yl)benzyl)-7H-pyrrolo[2,3-d]pyrimidine-6-carboxamide]	< 100
> 5	CNC(=O)c1cc2cnc(-c3c(OC)ncnc3C3CC3)nc2n1Cc1ccc(-c2cc(C)ccn2)cc1 [Example 209, 2-(4-cyclopropyl-6-methoxypyrimidin-5-yl)-N-methyl-7-(4-(4-methylpyridin-2-yl)benzyl)-7H-pyrrolo[2,3-d]pyrimidine-6-carboxamide]	< 100
> 5	COc1ncnc(C2CC2)c1-c1ncc2cc(C(=O)NC3CCC(N(C)C)CC3)n(Cc3ccc(-c4nc(C(F)(F)F)cn4C(C)C)cc3)c2n1 (centres unmarked) [Example 158, 2-(4-cyclopropyl-6-methoxypyrimidin-5-yl)-N-(4-(dimethylamino)cyclohexyl)-7-(4-(1-isopropyl-4-(trifluoromethyl)-1H-imidazol-2-yl)benzyl)-7H-pyrrolo[2,3-d]pyrimidine-6-carboxamide]	< 100
> 5	COc1ncnc(C2CC2)c1-c1ncc2cc(C(=O)N[C@@H]3CCN(C)C3)n(Cc3ccc(-c4nc(C(F)(F)F)cn4C)cc3)c2n1 [Example 169, (R) -2-(4-cyclopropyl-6-methoxypyrimidin-5-yl)-7-(4-(1-methyl-4-(trifluoromethyl)-1H-imidazol-2-yl)benzyl)-N-(1-methylpyrrolidin-3-yl)-7H-pyrrolo[2,3-d]pyrimidine-6-carboxamide]	< 100
> 5	CNC1CN(C(=O)c2cc3cnc(-c4c(OC)ncnc4C4CC4)nc3n2Cc2ccc(-c3nc(C(F)(F)F)cn3C)cc2)C1 [Example 203, (2-(4-cyclopropyl-6-methoxypyrimid in-5-yl)-7-(4-(1-methyl-4-(trifluoromethyl)-1H-imidazol-2-yl)benzyl)-7H-pyrrolo[2,3-d]pyrimidin-6-yl) (3-(methylamino)azetidin-1-yl)methanone]	< 100
> 5	COc1ncnc(C2CC2)c1-c1ncc2cc(C(=O)N[C@H](CO)C(C)C)n(Cc3ccc(-c4nc(C(F)(F)F)cn4C(C)C)cc3)c2n1 [Example 155, (S)-2-(4-cyclopropyl-6-methoxypyrimidin-5-yl)-N-(1-hydroxy-3-methylbutan-2-yl)-7-(4-(1-isopropyl-4-(trifluoromethyl)-1H-imidazol-2-yl)benzyl)-7H-pyrrolo[2,3-d]pyrimidine-6-carboxamide]	< 100
> 5	COc1ncnc(C2CC2)c1-c1ncc2cc(C(=O)N[C@H]3CN(C4CC4)C[C@H]3F)n(Cc3ccc(-c4nc(C(F)(F)F)cn4C)cc3)c2n1 [Example 215, N-((3S,4R)-1-cyclopropyl-4-fluoropyrrolidin-3-yl)-2-(4-cyclopropyl-6-methoxypyrimidin-5-yl)-7-(4-(1-methyl-4-(trifluoromethyl)-1H-imidazol-2-yl)benzyl)-7H-pyrrolo[2,3-d]pyrimidine-6-carboxamide]	< 100
